Drawing on ChEMBL document CHEMBL5260847, “Current scenario of indole derivatives with potential anti-drug-resistant cancer activity” (Eur J Med Chem, 2020), this text covers IC50 and Activity for five molecules.

The test system of test [1] is HeLa. Description: Anticancer activity against human HeLa cells assessed as inhibition of cell growth. Format: functional, cell-based.
The test system of test [2] is HCT-116. Kind of test: Antiproliferative activity against human HCT-116. Format: functional, cell-based.
Test [3] concerns PC-3. Kind of test: Antitumor activity in human PC-3 cells xenografted immunodeficient ICR mouse assessed as reduction in tumor growth at 25 mg/kg, ip administered for 2 weeks. It is filed as functional. On the set-up: scale not given: the % may be the effect or the level left.
Test [4] relates to PC-3. Kind of test: Antitumor activity in human PC-3 cells xenografted immunodeficient ICR mouse assessed as reduction in tumor growth at 0.5 mg/kg, ip administered for 2 weeks in presence of vinblastine. It is filed as functional. On the set-up: scale not given: the % may be the effect or the level left.
For test [5], the system named is A549. Description: Antiproliferative activity against human Non-small-cell lung cancer A549 cells assessed as reduction in cell viability incubated for 72 hrs by MTT assay. It is filed as functional, cell-based. The note with it: A549, 72 h.
Test [6] has as its system HT-29. Description: Antiproliferative activity against human HT-29 cells assessed as reduction in cell viability celltiter-Glo assay. Format: functional, cell-based.
The subject of test [7] is H69AR. Kind of test: Antiproliferative activity against multi-drug resistant human NCI-H69AR assessed as reduction in cell viability. Format: functional, cell-based.
Test [8] relates to MCF7. Description: Antiproliferative activity against Doxorubicin resistant human MCF7 cells assessed as reduction in cell viability. Format: functional, cell-based.
Test [9] deals with A549. Kind of test: Antiproliferative activity against human A549 cells assessed as reduction in cell viability after 48 hrs by CellTiter-Blue assay. It is filed as functional, cell-based. The note with it: A549, 48 h.
The subject of test [10] is ZR-75-1. Kind of test: Antiproliferative activity against multi-drug resistant human ZR-75-1 cells assessed as reduction in cell viability. It is filed as functional, cell-based.
Test [11] relates to H69AR. Description: Antiproliferative activity against multidrug resistant human NCI-H69AR assessed as inhibition of cell proliferation by MTT assay. It is filed as functional, cell-based.
The subject of test [12] is ZR-75-1. Description: Antiproliferative activity against human ZR-75-1 cells assessed as reduction in cell viability celltiter-Glo assay. Format: functional, cell-based.
The subject of test [13] is HT-29. Kind of test: Antiproliferative activity against human HT-29 cells assessed as reduction in cell viability incubated for 72 hrs by MTT assay. It is filed as functional, cell-based. The note with it: HT-29, 72 h.
Test [14] concerns LS180. Description: Antitumor activity against human LS180 cells xenografted in ICR mouse assessed as tumor growth inhibition at 45 mg/kg. Format: functional. The arrangement: scale not given: the % may be the effect or the level left.
Test [15] concerns LS180. Kind of test: Antitumor activity against human LS180 cells xenografted in ICR mouse assessed as tumor growth inhibition at 4.5 mg/kg. The arrangement: scale not given: the % may be the effect or the level left. Format: functional.

The structures appear in SMILES notation. Bounds are passed on as bounds.

Regarding `O=C1/C(=N\O)c2ccccc2N1CCOCCN1C(=O)/C(=N/O)c2ccccc21`, the half-maximal inhibitory concentration (IC50) in [1] and in test [2] was 6.23 µM in each case.

For the molecule `CC1(C)C([C@@H](Cc2c[nH]c3ccccc23)C(=O)OCc2ccccc2)C(=O)[C@@H]2Cc3c([nH]c4ccccc34)CN21` (stereo partly specified), the Activity in test [3] is given as 40%; in test [4] it was 50%.

Regarding `CCN(CC)CCNC(=O)c1c(C)[nH]c(/C=C2\C(=O)Nc3ccc(F)cc32)c1C` [SUNITINIB], the half-inhibitory concentration (IC50) in test [5] is 3.06 µM; in [6] it was 10.1 µM; in [7], 5.8 µM; in test [8] it was > 100 µM; in test [9] it was 10.1 µM; in test [10], 18.9 µM. In addition, the half-inhibitory concentration (IC50) in test [11] turned out to be 5.8 µM; in [12], 5.87 µM.

For the molecule `COc1ccc2c(c1)/C(=N/NC(=O)c1cc3cc(OC)ccc3[nH]1)C(=O)N2Cc1ccccc1`, the half-inhibitory concentration (IC50) in test [9] amounted to 0.54 µM; in test [13] it was 2.94 µM.

Regarding `CCO[C@]1(C)C[C@@H]2CN(CCc3c([nH]c4ccccc34)[C@@](C(=O)OC)(c3cc4c(cc3OC)N(C)C3[C@]45CCN4CC=C[C@@](CC)([C@@H](OC(C)=O)[C@]3(O)C(=O)OC)[C@H]45)C2)C1` (stereo partly specified), the results for the Activity in [14] and in test [15] were 67.8% and 40.7%, respectively.
